Assay results taken from ChEMBL document CHEMBL1201862, “PubChem BioAssay data set” (2004).
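Briefly, cells in 96-well plates were exposed to five compound concentrations for 48 h, and endpoints were estimated by linear interpolation. GI50 is the concentration that inhibits growth by half.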 The source made the active and inactive calls. Rule as the data show it: active = GI50 up to about 1.1 µM and inactive = higher.

Assays:
Assay in all cases: DTP human tumour cell line panel, 48 h
RPMI-8226 = tested on: RPMI-8226
HOP-62 = tested on: HOP-62
M14 = tested on: M14
BT-549 = tested on: BT-549
NCI/ADR-RES = tested on: NCI/ADR-RES
786-0 = tested on: 786-0
SF-295 = tested on: SF-295
U-251 = tested on: U-251
NCI-H23 = tested on: NCI-H23
UACC-62 = tested on: UACC-62
IGROV-1 = tested on: IGROV-1
MDA-MB-435 = tested on: MDA-MB-435
NCI-H522 = tested on: NCI-H522
SK-MEL-5 = tested on: SK-MEL-5
HCC 2998 = tested on: HCC 2998
T47D = tested on: T47D
SF-268 = tested on: SF-268
NCI-H226 = tested on: NCI-H226
OVCAR-3 = tested on: OVCAR-3
OVCAR-8 = tested on: OVCAR-8

Structure (SMILES) | GI50 (RPMI-8226) | GI50 (HOP-62) | GI50 (M14) | GI50 (BT-549) | GI50 (NCI/ADR-RES) | GI50 (786-0) | GI50 (SF-295) | GI50 (U-251) | GI50 (NCI-H23) | GI50 (UACC-62) | GI50 (IGROV-1) | GI50 (MDA-MB-435) | GI50 (NCI-H522) | GI50 (SK-MEL-5) | GI50 (HCC 2998) | GI50 (T47D) | GI50 (SF-268) | GI50 (NCI-H226) | GI50 (OVCAR-3) | GI50 (OVCAR-8)
COc1cc2c(cc1O)Cc1c-2[n+](C)cc2cc(OC)c(OC)cc12 | 9.14 µM (inactive) | 6.61 µM (inactive) | 7.19 µM (inactive) | 8.11 µM (inactive) | 6.79 µM (inactive) | 2.87 µM (inactive) | 7.89 µM (inactive) | 2.01 µM (inactive) | 12.6 µM (inactive) | 7.43 µM (inactive) | 52.7 µM (inactive) | 36 µM (inactive) | 0.49 µM (active) | 6.76 µM (inactive) | > 100 µM (inactive) | 19.1 µM (inactive) | 0.472 µM (active) | > 59 µM (inactive) | 29.7 µM (inactive) | 2.72 µM (inactive)
CC(=O)OCC1OC(n2c(N)c(C#N)c(-c3ccccc3)c(C#N)c2=S)C(OC(C)=O)C(OC(C)=O)C1OC(C)=O (stereo not given) | > 100 µM (inactive) | 11.6 µM (inactive) | > 100 µM (inactive) | 42.6 µM (inactive) | > 100 µM (inactive) | 21.8 µM (inactive) | 30.8 µM (inactive) | 11.2 µM (inactive) | > 65.8 µM (inactive) | > 61.8 µM (inactive) | > 100 µM (inactive) | > 100 µM (inactive) | 13 µM (inactive) | > 100 µM (inactive) | > 100 µM (inactive) | > 81.1 µM (inactive) | 7.8 µM (inactive) | > 61.4 µM (inactive) | > 100 µM (inactive) | 34.9 µM (inactive)
COc1ccc2c(c1)-c1nn(CCN(C)C)c3ccc(C(=O)NCCCN(C)CCCNC(=O)c4ccc5c6c(c7cc(OC)ccc7nc46)NN5CCN(C)C)c(c13)N2 | 0.0105 µM (active) | 0.0318 µM (active) | 0.0822 µM (active) | 0.138 µM (active) | 1.7 µM (inactive) | 0.0313 µM (active) | 0.0671 µM (active) | < 0.01 µM (active) | 0.0344 µM (active) | 0.0692 µM (active) | 0.0215 µM (active) | 0.0401 µM (active) | < 0.01 µM (active) | 0.0512 µM (active) | 0.045 µM (active) | 0.158 µM (active) | 0.153 µM (active) | 0.155 µM (active) | 0.0933 µM (active) | 0.0133 µM (active)
CCCN(CCC)CCc1ccc(OC2=CCN(C)CC2)cc1 | > 100 µM (inactive) | > 100 µM (inactive) | 15.7 µM (inactive) | 29.8 µM (inactive) | > 100 µM (inactive) | 39.9 µM (inactive) | > 100 µM (inactive) | > 100 µM (inactive) | > 100 µM (inactive) | 38 µM (inactive) | 67.3 µM (inactive) | 33 µM (inactive) | 21.1 µM (inactive) | 32.3 µM (inactive) | > 100 µM (inactive) | > 100 µM (inactive) | 86.1 µM (inactive) | > 100 µM (inactive) | 79.3 µM (inactive) | 36.9 µM (inactive)
CC(=O)O[C@H]1CC[C@]2(C=O)[C@H]3CC[C@]4(C)[C@@H](C5=CC(=O)OC5)CC[C@]4(O)[C@@H]3CC[C@]2(O)C1 [STROPHANTHIDIN ACETATE] | 0.313 µM (active) | 0.226 µM (active) | 0.416 µM (active) | 0.144 µM (active) | 0.197 µM (active) | 0.212 µM (active) | 0.175 µM (active) | 0.296 µM (active) | 0.111 µM (active) | 0.353 µM (active) | 0.31 µM (active) | 0.272 µM (active) | 0.0336 µM (active) | 0.0923 µM (active) | 0.325 µM (active) | 0.407 µM (active) | 0.171 µM (active) | 0.681 µM (active) | 0.0982 µM (active) | 0.267 µM (active)
O=C(CCc1ccc(O)c(O)c1)NCCc1cc(OCc2ccccc2)cc(OCc2ccccc2)c1 | 5.27 µM (inactive) | 13.1 µM (inactive) | 12.1 µM (inactive) | 6.07 µM (inactive) | 13.1 µM (inactive) | 13.3 µM (inactive) | 18.1 µM (inactive) | 5.77 µM (inactive) | 14.1 µM (inactive) | 14.9 µM (inactive) | 5.93 µM (inactive) | 12.2 µM (inactive) | 1.79 µM (inactive) | 12.2 µM (inactive) | 9.86 µM (inactive) | 16.4 µM (inactive) | 8.45 µM (inactive) | 20.1 µM (inactive) | 5.92 µM (inactive) | 13.6 µM (inactive)
Cc1c(N)nc([C@H](CC(N)=O)NC[C@H](N)C(N)=O)nc1C(=O)N[C@H](C(=O)N[C@H](C)[C@@H](O)CC(=O)N[C@H](C(=O)NC(O[C@@H]1O[C@@H](C)[C@@H](N)[C@@H](O)[C@H]1O)C(O)c1nc(-c2nc(C(=O)NCCC[S+](C)C)cs2)cs1)[C@@H](C)O)[C@H](O[C@@H]1O[C@@H](CO)[C@@H](O)[C@H](O)[C@@H]1O[C@H]1O[C@H](CO)[C@@H](O)[C@H](OC(N)=O)[C@@H]1O)c1c[nH]cn1 (stereo not given in full) | > 100 µM (inactive) | 5.18 µM (inactive) | > 100 µM (inactive) | > 100 µM (inactive) | 33.3 µM (inactive) | 13.9 µM (inactive) | 5.46 µM (inactive) | 92.5 µM (inactive) | > 100 µM (inactive) | 35.4 µM (inactive) | 33.3 µM (inactive) | > 100 µM (inactive) | 15.1 µM (inactive) | 28.8 µM (inactive) | 8.39 µM (inactive) | > 100 µM (inactive) | 39.2 µM (inactive) | 21 µM (inactive) | 95.3 µM (inactive) | 48.9 µM (inactive)
O=S(=O)(c1cccc(C(F)(F)F)c1)N1c2ccccc2-n2cccc2C1c1cccnc1 (stereo not given) | 6.17 µM (inactive) | > 43.6 µM (inactive) | 16.2 µM (inactive) | 9.29 µM (inactive) | 5.19 µM (inactive) | > 40.6 µM (inactive) | 71.8 µM (inactive) | 23.9 µM (inactive) | 8.49 µM (inactive) | 13.9 µM (inactive) | 40.6 µM (inactive) | 6.3 µM (inactive) | 15.4 µM (inactive) | 8.09 µM (inactive) | 24.7 µM (inactive) | 7.03 µM (inactive) | > 43.2 µM (inactive) | > 28.1 µM (inactive) | > 35.8 µM (inactive) | 44.3 µM (inactive)
O=C1C=CC(=O)C1(Br)Br | 6.64 µM (inactive) | 17.6 µM (inactive) | 18.1 µM (inactive) | 11.3 µM (inactive) | 20.7 µM (inactive) | 9.18 µM (inactive) | 17.2 µM (inactive) | 12.3 µM (inactive) | 15.5 µM (inactive) | 10.8 µM (inactive) | 5.01 µM (inactive) | 13.4 µM (inactive) | 6.27 µM (inactive) | 16.9 µM (inactive) | 16.2 µM (inactive) | 14.8 µM (inactive) | 18.5 µM (inactive) | 19 µM (inactive) | 12.9 µM (inactive) | 8.3 µM (inactive)
CCOC(=O)NN(C(=O)OCC)C(C(=O)c1ccccc1)N(NC(=O)OCC)C(=O)OCC | > 100 µM (inactive) | > 100 µM (inactive) | > 100 µM (inactive) | > 100 µM (inactive) | > 100 µM (inactive) | > 100 µM (inactive) | > 100 µM (inactive) | > 100 µM (inactive) | > 100 µM (inactive) | > 100 µM (inactive) | > 100 µM (inactive) | > 100 µM (inactive) | > 100 µM (inactive) | > 100 µM (inactive) | > 100 µM (inactive) | > 100 µM (inactive) | > 100 µM (inactive) | > 100 µM (inactive) | > 100 µM (inactive) | > 100 µM (inactive)
S=C(N/N=C\c1ccccn1)N(Cc1ccccn1)Cc1ccccn1 | 1.17 µM (inactive) | 2.71 µM (inactive) | 1.1 µM (active) | 1.93 µM (inactive) | 1.19 µM (inactive) | 0.697 µM (active) | 1.65 µM (inactive) | 0.195 µM (active) | 1.87 µM (inactive) | 2.08 µM (inactive) | 0.427 µM (active) | 4.45 µM (inactive) | 0.0637 µM (active) | 1.07 µM (active) | 7.03 µM (inactive) | 1.46 µM (inactive) | 0.431 µM (active) | < 0.0419 µM (active) | 1.94 µM (inactive) | 0.367 µM (active)
CC(C)/C(Cl)=N/OC(NC(=O)Nc1ccc(Cl)c(Cl)c1)(C(F)(F)F)C(F)(F)F | 1.72 µM (inactive) | 21.6 µM (inactive) | 5.65 µM (inactive) | 11.5 µM (inactive) | 14.6 µM (inactive) | 8.77 µM (inactive) | 19.8 µM (inactive) | 17.3 µM (inactive) | 17.8 µM (inactive) | 16 µM (inactive) | 16.2 µM (inactive) | 16.4 µM (inactive) | 1.69 µM (inactive) | 15.8 µM (inactive) | 20.1 µM (inactive) | 7.64 µM (inactive) | 18.2 µM (inactive) | 19.9 µM (inactive) | 5.9 µM (inactive) | 17.7 µM (inactive)
